{"source": "patent US6951733B2", "about": "“Method for testing drug susceptibility of Mycobacterium tuberculosis” (priority 2000, dated 2005)", "key": {"[1]": {"tested_on": "55 M. tuberculosis clinical isolates", "format": "cell-based"}, "[2]": {"tested_on": "13 M. tuberculosis pan-susceptible strains", "assay": "MIC determination on HSTB agar, susceptible strains", "format": "cell-based", "conditions": "for MIC: Mycobacterium tuberculosis, HSTB agar"}, "[3]": {"tested_on": "13 M. tuberculosis pan-susceptible strains", "conditions": "adopted for 7H11 agar; cited from earlier work"}, "[4]": {"conditions": "strains Susceptible by the BACTEC 300 μg/ml"}, "[5]": {"conditions": "strains Susceptible by the BACTEC 900 μg/ml"}}, "note": "Where two headings read alike, the source gives them in different places.", "data": [{"smiles": "NC(=O)c1cnccn1", "note": "[PZA, pyrazinamide]", "values": [{"measurement": "Number of strains by the agar proportion method, 900 μg/ml Susceptible", "setting": "[1]; [4]", "value": 25}, {"measurement": "Number of strains by the agar proportion method, 1200 μg/ml Susceptible", "setting": "[1]; [4]", "value": 25}, {"measurement": "Number of strains by the agar proportion method, 900 μg/ml Susceptible", "setting": "[1]; [5]", "value": 26}, {"measurement": "Number of strains by the agar proportion method, 1200 μg/ml Susceptible", "setting": "[1]; [5]", "value": 27}]}, {"smiles": "CO[C@H]1/C=C/O[C@@]2(C)Oc3c(C)c(O)c4c(O)c(c(/C=N/N5CCN(C)CC5)c(O)c4c3C2=O)NC(=O)/C(C)=C\\C=C\\[C@H](C)[C@H](O)[C@@H](C)[C@@H](O)[C@@H](C)[C@H](OC(C)=O)[C@@H]1C", "note": "[RMP, rifampin]", "values": [{"measurement": "critical concentration of RMP", "setting": "[2]", "value": 2.0, "unit": "µg/mL"}, {"measurement": "critical concentration of RMP", "setting": "[3]", "value": 1.0, "unit": "µg/mL"}]}, {"smiles": "NNC(=O)c1ccncc1", "note": "[INH, isoniazid]", "values": [{"measurement": "MIC", "setting": "[2]; 0.2: 13 strains, read-out: MICs (mcg/ml) of INH for 13 Susceptible Strains, HSTB", "value": 0.2, "unit": "µg/mL"}, {"measurement": "MIC", "setting": "[2]; all 13 strains, read-out: MIC of INH", "value": 0.2, "unit": "µg/mL"}]}]}
